Active and inactive are the calls of the source. No cut-off for these calls is given here.

The test system of data set [1] is Hepatitis C virus. The data set can be described thus: Inhibition of HCV 1b RB01 NS5B by filtermat assay. Also on record: species or system Hepatitis C virus subtype 1b.
In data set [2] the test system is Hepatitis C virus. The data set can be described thus: Antiviral activity against HCV replicon containing HCV 1b genome transfected in Huh7 cells after 72 hrs by ELISA. The format is functional, organism-based, Hepacivirus hominis. The following applies: genotype 1b, Huh-7, 72 h. On the technique in general: Replicon systems follow genome replication, usually without infectious particles.

The nature of data set [3]: Cytotoxicity against Vero cells after 4 days. The format is cell-based. To be noted: chlorocebus sabaeus, read-out: CCID50.
Data set [4] is described as follows: Bioavailability in Sprague-Dawley rat at 2 mg/kg, po and 1 mg/kg, iv. The format is ADME, organism-based. To be noted: in vivo.
A short description of data set [5]: Plasma clearance in Sprague-Dawley rat at 1 mg/kg, iv. The class given is ADME, organism-based. Details: dose 1 mg/kg, route intravenous.
Data set [6] has as its system Hepatitis C virus. Put plainly: Inhibition of HCV 1b RB01 NS5B by SPA. Also on record: species or system Hepatitis C virus subtype 1b.
In data set [7] the test system is Hepatitis C virus. Put plainly: Antiviral activity against HCV replicon containing HCV 1b genome transfected in Huh7 cells in presence of interferon alpha 2a. The class given is functional, organism-based. The following applies: Hepacivirus hominis; genotype 1b; Huh-7.
Data set [8] can be described thus: Lipophilicity, log D of the compound. The format is physicochemical. The following applies: octanol/water.

In the case of `CC(C)C[C@@]1(C(=O)O)C[C@H](C(N)=O)[C@H](c2nccs2)N1C(=O)c1ccc(C(C)(C)C)cc1`, the IC50 (in general, the concentration at which inhibition is half-maximal) with Hepatitis C virus [1] came out at 970 nM. In the data set on Hepatitis C virus [2], the EC50 – broadly, the concentration that produces a half-maximal response – is > 20000 nM. Further, in data set [3], the CC50 at 96 h turned out to be 430000 nM. In addition, in data set [4], the bioavailability was found to be 2%. Also, the clearance (commonly a measure of how efficiently the substance is removed, as volume per time) in data set [5] came out at 21 mL/min/kg.

`COC[C@H]1C[C@@](CC(C)C)(C(=O)O)N(C(=O)c2ccc(C(C)(C)C)c(OC)c2)[C@H]1c1nccs1`: in the data set on Hepatitis C virus [6], the midpoint of inhibition, the IC50, lay at 440 nM. Also, in the data set on Hepatitis C virus [7], the outcome was Active. In the data set on Hepatitis C virus [2], this compound had an EC50 of 390 nM. Moreover, the CC50 at 96 h in data set [3] came to 240000 nM. Moreover, the bioavailability in data set [4] worked out at 59%. Besides, the clearance in data set [5] is 5 mL/min/kg. Besides, the logD (usually lipophilicity at a set pH, counting ionised and neutral species) in data set [8] turned out to be 2.2.

Compound `CC(C)C[C@@]1(C(=O)O)C[C@H](C(N)=O)[C@H](c2nccs2)N1C(=O)c1ccc(C(C)(C)C)c(Cl)c1` displayed an IC50 in the data set on Hepatitis C virus [1] of 20 nM. Besides, a half-maximal response in the data set on Hepatitis C virus [2] (EC50) required 1200 nM. Moreover, in data set [3], the CC50 at 96 h is > 500000 nM. In addition, in data set [4], the bioavailability is 5%. Besides, the clearance in data set [5] was found to be 29 mL/min/kg.

`CC(C)C[C@@]1(C(=O)O)C[C@H](C(=O)O)[C@H](c2nccs2)N1C(=O)c1ccc(C(C)(C)C)cc1` (racemic): the IC50 in the data set with Hepatitis C virus [1] stood at 3800 nM. The EC50 with Hepatitis C virus [2] is > 20000 nM. In addition, the CC50 at 96 h in data set [3] was > 500000 nM.

Take `COc1cc(C(=O)N2[C@@H](c3nccs3)[C@@H](CO)C[C@@]2(CC(C)C)C(=O)O)ccc1C(C)(C)C` (racemic): the midpoint of inhibition with Hepatitis C virus [6], the IC50, lay at 730 nM. The compound also had an EC50 in the data set with Hepatitis C virus [2] of 210 nM. Also, the CC50 at 96 h in data set [3] was determined as 358000 nM. Also, the bioavailability in data set [4] turned out to be 12%. The compound also gave a clearance in data set [5] of 36 mL/min/kg.

Turning to `CCOC[C@@H]1C[C@@](CC(C)C)(C(=O)O)N(C(=O)c2ccc(C(C)(C)C)c(OC)c2)[C@H]1c1nccs1` (racemic), half-maximal inhibition in the data set on Hepatitis C virus [6] (IC50) required 3200 nM. This compound yielded a half-maximal effective concentration (EC50) with Hepatitis C virus [2] of 12800 nM. Moreover, in data set [3], the CC50 at 96 h worked out at 214000 nM.

Consider `COc1cc(C(=O)N2[C@@H](c3nccs3)[C@@H](C(N)=O)C[C@@]2(CC(C)C)C(=O)O)ccc1C(C)(C)C`, for which inhibition in the data set on Hepatitis C virus [1] was half-maximal at 5 nM (IC50). This compound showed an EC50 in the data set with Hepatitis C virus [2] of 610 nM. Besides, the CC50 at 96 h in data set [3] is > 500000 nM. For the same compound, the bioavailability in data set [4] stood at 0.6%. The compound further displayed a clearance in data set [5] of 37 mL/min/kg.

Regarding `COC[C@@H]1C[C@@](CC(C)C)(C(=O)O)N(C(=O)c2ccc(C(C)(C)C)c(OC)c2)[C@H]1c1nccs1`, the 50% inhibitory concentration (IC50) in the data set with Hepatitis C virus [6] turned out to be 2300 nM. Further, in the data set with Hepatitis C virus [2], the EC50 came out at 5700 nM. Also, the CC50 at 96 h in data set [3] was 265000 nM. Also, the bioavailability in data set [4] is 44%. In addition, the clearance in data set [5] stood at 12 mL/min/kg.

As to `CCOC[C@H]1C[C@@](CC(C)C)(C(=O)O)N(C(=O)c2ccc(C(C)(C)C)c(OC)c2)[C@H]1c1nccs1`, the IC50 with Hepatitis C virus [6] is 430 nM. Moreover, the EC50 in the data set with Hepatitis C virus [2] amounted to 470 nM. Also, the CC50 at 96 h in data set [3] came out at 142000 nM. In addition, the bioavailability in data set [4] was found to be 120%. The clearance in data set [5] amounted to 5 mL/min/kg. In data set [8], this compound yielded a log distribution coefficient (logD) of 2.7.

In the data set with Hepatitis C virus [1], `CC(C)C[C@@]1(C(=O)O)C[C@H](C(=O)O)[C@H](c2cccs2)N1C(=O)c1ccc(C(F)(F)F)cc1` (racemic) returned a 50% inhibitory concentration (IC50) of 20000 nM. Besides, in the data set with Hepatitis C virus [2], the EC50 is > 20000 nM. Also, in data set [3], the CC50 at 96 h is > 500000 nM.

`CC(C)C[C@@]1(C(=O)O)C[C@H](C(N)=O)[C@H](c2nccs2)N1C(=O)c1ccc(C(C)(C)C)c(Br)c1`: the 50% inhibitory concentration (IC50) with Hepatitis C virus [1] worked out at 14 nM. The EC50 with Hepatitis C virus [2] amounted to 570 nM. The CC50 at 96 h in data set [3] is > 500000 nM. The bioavailability in data set [4] worked out at 2%. Also, the clearance in data set [5] was found to be 24 mL/min/kg.

In the data set with Hepatitis C virus [6], `COc1cc(C(=O)N2[C@@H](c3nccs3)[C@H](CO)C[C@@]2(CC(C)C)C(=O)O)ccc1C(C)(C)C` (racemic) returned a 50% inhibitory concentration (IC50) of 1000 nM. The same compound gave a concentration for a half-maximal effect (EC50) with Hepatitis C virus [2] of 1300 nM. Further, in data set [3], the CC50 at 96 h came out at 482000 nM. Moreover, the bioavailability in data set [4] worked out at 11%. Besides, the clearance in data set [5] was determined as 39 mL/min/kg.

Compound `CC(C)C[C@@]1(C(=O)O)C[C@H](C(=O)O)[C@H](c2cccs2)N1C(=O)c1ccc(C(C)(C)C)cc1` (racemic) yielded an IC50 with Hepatitis C virus [1] of 1100 nM. The EC50 with Hepatitis C virus [2] was > 20000 nM. In data set [3], the CC50 at 96 h is > 500000 nM.

The record behind these values is ChEMBL document CHEMBL1142239, “Optimization of novel acyl pyrrolidine inhibitors of hepatitis C virus RNA-dependent RNA polymerase leading to a development candidate” (J Med Chem, 2007).
